One data set has as its system rats. The following applies: rat, in vivo, 500 mg/kg. An excerpt: La toxicité subaiguë de l'acétylsalicylate de 2(o-méthoxy-phénoxy)éthanol a été évaluée en comparaison avec celle de l'acide acétylsalicylique en administrant à des rats, par voie orale, des doses journalières de substance pour 10 jours, et en relevant le nombre des animaux morts, la diminution moyenne de poids des animaux traités et l'incidence des lésions gastriques relevées, distinguées en simple hyperémie, hyperémie accompagnée par hémorragie et hémorragie accompagnée par ulcérations. Les résultats des épreuves sont indiqués dans le Tableau 5, dans lequel la dose de substance administrée est exprimée en mg de substance par kg de poids corporel et par jour, et la diminution moyenne de poids corporel à la fin du traitement est exprimée en grammes.

In data set [1] the test system is convulsions abdominales (writhings) induites dans le souris par une injection intrapéritonéale d'acide acétique. Put plainly: Acetic acid writhing test (analgesic activity, Koster and Anderson). Format: in vivo. The following applies: for Frequence writhings: souris, 60 minutes après l'administration, ± déviation standard. An excerpt:
L'activité analgésique de l'acétylsalicylate de 2(o-méthoxy-phénoxy)éthanol a été évaluée en comparaison avec celle de l'acide acétylsalicylique sur la base de la fréquence des convulsions abdominales (writhings) induites dans le souris par une injection intrapéritonéale d'acide acétique, suivant la technique décrite par Koster et Anderson (Fed. Proc., volume 18, page 412, 1959). Les résultats de l'élaboration statistique des épreuves sont indiqués dans le suivant Tableau 3, dans lequel la fréquence des convulsions est indiquée comme nombre de convulsions par minute ± la déviation standard, et a été mesurée 60 minutes après l'administration; pour les autres valeurs est valable ce qui a été spécifié en relation avec le Tableau 1.
On the technique in general: In writhing tests, fewer writhes than in controls are read as antinociception.

Data set [2] has as its system température corporelle, augmentée par l'injection intraveineuse de nucléinate de sodium dans le lapin. Put plainly: Antipyretic activity: rise in body temperature induced by intravenous sodium nucleinate. Format: in vivo. The following applies: for Augmentation temperature corporelle - °C ± d.s. après 1 heure: 1 heure après l'administration; for Augmentation temperature corporelle - °C ± d.s. après 2 heures: 2 heures après l'administration; for Augmentation temperature corporelle - °C ± d.s. après 3 heures: 3 heures après l'administration; for Augmentation temperature corporelle - °C ± d.s. après 4 heures: 4 heures après l'administration. The text has this: L'activité antipyrétique de l'acétylsalicylate de 2(o-méthoxy-phénoxy)éthanol a été evaluée en comparaison avec celle de l'acide acétylsalicylique suivant la méthode, universellement employée, de la mesure de la variation de la température corporelle, augmentée par 1' injection intraveineuse de nucléinate de sodium dans le lapin. Les résultats de l'élaboration statistique des épreuves sont indiqués dans le suivant Tableau 2, dans lequel l'augmentation de la température corporelle est indiquée en °C ± la déviation standard, et a été mesurée 1, 2, 3 et 4 heures après l'administration; pour les autres valeurs est valable ce qui a été spécifié en relation avec le Tableau 1.

In data set [3] the test system is oedème induit par carraghénine injectée dans la patte de rats. The experiment in a line: Carrageenan-induced rat paw oedema (antiphlogistic activity, Winter et al). The class given is in vivo. Particulars: voie orale; for Volume de l'oedème - ml ± d.s. après 3 heures: 3 heures après le traitement oedémigène; for Volume de l'oedème - ml ± d.s. après 6 heures: 6 heures après le traitement oedémigène. An excerpt:
L'activité antiphlogistique de l'acétylsalicylate de 2(o-méthoxy-phénoxy) éthanol a été évaluée en comparaison avec celle de l'acide acétylsalicylique sur la base de la variation de volume de l'oedème induit par carraghénine injectée dans la patte de rats, suivant la technique décrite par Winter et al (Proc. Soc. Exp. Biol. Med., volume III, page 544, 1962). Les résultats de l'élaboration des épreuves sont indiqués dans le Tableau 1, dans lequel le volume de l'oedème est indiqué en millilitres z la déviation standard, et il a été mesuré 3, 4,5 et 6 heures après le traitement oedémigène; la dose de substance est indiquée en milligrammes de substance administrée par voie orale pour chaque kilogramme de poids corporel des rats; les valeurs marquées par * correspondent à une probabilité d'erreur p < 0,05, les valeurs marquées correspondent à une probabilité d'erreur p < 0,01, calculées sur les valeurs des contrôles, et les valeurs indiquées entre parenthèses indiquent l'inhibition en pour-cent calculée par rapport aux contrôles.
(In general: The carrageenan paw model is a standard test of acute inflammation.)

The subject of data set [4] is arbre bronchial de rats Wistar. The experiment in a line: Bronchosecretolytic activity: pulmonary excretion of fluorescein (Mawatari). Format: in vivo. Particulars: rats Wistar, 101,8 mg/Kg. The text has this: L'activité bronchosécrétolytique de l'acétylsalicylate de 2(o-méthoxy-phénoxy)éthanol a été évaluée en comparaison avec celle du gaïacoléthanol, sur la base de la mesure des variations de la quantité d'indicateur (fluorescéine) trouvée dans l'arbre bronchial de rats Wistar, recueillie au moyen d'un système de lavage standardisé, après injection parentérale de l'indicateur, et mesurée au moyen d'un spectrofluorométre, suivant la méthode décrite par H.Mawatari ("Expérimental studies on the expectorant action of several drugs", Kagoshima Daigakeu Igakeu Zasshi, volume 27, page 561, 1976). Les résultats de l'élaboration statistique des épreuves sont recueillis dans le suivant tableau 4,dans lequel l' excrétion pulmonaire de fluorescéine est exprimée en microgrammes ± la déviation standard, soit dans la quantité totale trouvée, soit dans la quantité pour-cent rapportée à 100 g de poids corporel des rats. Entre parenthèses sont indiquées les valeurs de l'augmentation pour-cent par rapport aux contrôles. Pour les autres valeurs est valable ce qui été précisé en relation au Tableau 1.

As usually defined, the inhibition is the change of the read-out against control, counted positive when it falls. Low readings indicate little suppression, high ones strong suppression. On to `CC(=O)Oc1ccccc1C(=O)O` [Acide acétyl-salicylique, acide acétylsalicylique, reference compound], for which, in the data set with rats, the “Lésions gastriques Hyperémie” value came to 4, the “Lésions gastriques Hyperémie + hémorragie” value is 3, the “Lésions gastriques Hémorragie + ulcérations” value is recorded as 2 and the Nombre animaux morts came to 6. In addition, in the data set on rats, the Δ poids moyenne was -30 grammes. Besides, in data set [1] (1 h), at 100 mg/kg the inhibition was 30% and the inhibition at 200 mg/kg was found to be 44%. For the same compound, the Frequence writhings result in data set [1] (100 mg/Kg) is reported as “*20,5 ± 6,7 convulsions par minute”. The Frequence writhings entry in data set [1] (200 mg/Kg) is recorded as “**16,4 ± 5,8 convulsions par minute”. In addition, in data set [2] (100 mg/Kg), the “inhibition en pour-cent calculée par rapport aux contrôles, après 1 heure” value is listed as 40 pour-cent; the “Augmentation temperature corporelle - °C ± d.s. après 1 heure” value was 0,75 ± 0,16 °C; the “inhibition en pour-cent calculée par rapport aux contrôles, après 2 heures” value is given as 46 pour-cent; the “Augmentation temperature corporelle - °C ± d.s. après 2 heures” value is 0,78 ± 0,17 °C. Further, in data set [2] (100 mg/Kg), the “inhibition en pour-cent calculée par rapport aux contrôles, après 3 heures” value is listed as 43 pour-cent; the “Augmentation temperature corporelle - °C ± d.s. après 3 heures” value was 0,94 ± 0,12 °C; the “inhibition en pour-cent calculée par rapport aux contrôles, après 4 heures” value was 26 pour-cent; the “Augmentation temperature corporelle - °C ± d.s. après 4 heures” value was 0,55 ± 0,1 °C. Besides, in data set [2] (200 mg/Kg), the “inhibition en pour-cent calculée par rapport aux contrôles, après 1 heure” value was 50 pour-cent; the “Augmentation temperature corporelle - °C ± d.s. après 1 heure” value was 0,62 ± 0,13 °C; the “inhibition en pour-cent calculée par rapport aux contrôles, après 2 heures” value is given as 51 pour-cent; the “Augmentation temperature corporelle - °C ± d.s. après 2 heures” value was 0,71 ± 0,18 °C. In addition, in data set [2] (200 mg/Kg), the “inhibition en pour-cent calculée par rapport aux contrôles, après 3 heures” value is listed as 43 pour-cent; the “Augmentation temperature corporelle - °C ± d.s. après 3 heures” value is 0,93 ± 0,16 °C; the “inhibition en pour-cent calculée par rapport aux contrôles, après 4 heures” value is given as 31 pour-cent; the “Augmentation temperature corporelle - °C ± d.s. après 4 heures” value was 0,52 ± 0,07 °C. For the same compound, in data set [3] (100 mg/Kg), the “inhibition en pour-cent calculée par rapport aux contrôles, après 3 heures” value was 44,0 pour-cent; the “Volume de l'oedème - ml ± d.s. après 3 heures” value was 0,380 ± 0,21 ml; the “inhibition en pour-cent calculée par rapport aux contrôles, après 6 heures” value is reported as 41,0 pour-cent; the “Volume de l'oedème - ml ± d.s. après 6 heures” value was 0,285 ± 0,18 ml. Besides, in data set [3] (100 mg/Kg, 4,5 heures), the “inhibition en pour-cent calculée par rapport aux contrôles, après 4,5 heures” value was 35,0 pour-cent. The “Volume de l'oedème - ml ± d.s. après 4,5 heures” value in data set [3] (100 mg/Kg, 4,5 heures après le traitement oedémigène) is 0,395 ± 0,14 ml. Also, in data set [3] (200 mg/Kg), the “inhibition en pour-cent calculée par rapport aux contrôles, après 3 heures” value is listed as 56,5 pour-cent; the “Volume de l'oedème - ml ± d.s. après 3 heures” value is 0,297 ± 0,17 ml; the “inhibition en pour-cent calculée par rapport aux contrôles, après 6 heures” value is recorded as 43,0 pour-cent; the “Volume de l'oedème - ml ± d.s. après 6 heures” value is given as 0,275 ± 0,18 ml. In addition, the “inhibition en pour-cent calculée par rapport aux contrôles, après 4,5 heures” value in data set [3] (200 mg/Kg, 4,5 heures) is on record as 39,0 pour-cent. The “Volume de l'oedème - ml ± d.s. après 4,5 heures” value in data set [3] (200 mg/Kg, 4,5 heures après le traitement oedémigène) was 0,370 ± 0,09 ml.
Take `COc1ccccc1OCCO` [Gaïacol-éthanol, gaïacoléthanol, reference compound]: the “augmentation pour-cent par rapport aux contrôles (excrétion pulmonaire de fluorescéine, quantité totale)” value in data set [4] is reported as “+72,2 pour-cent”. Besides, in data set [4] (rapportée à 100 g de poids corporel, ± déviation standard), the “Excrétion pulmonaire de fluorescéine Quantité pour-cent µg/100 g” value is recorded as 0,202 ± 0,034 µg/100 g. For the same compound, the “Excrétion pulmonaire de fluorescéine Quantité totale µg” value in data set [4] (± déviation standard) is given as 0,434 ± 0,064 µg.

The values above are taken from patent EP0070049A1, “Derivative of acetylsalicylic acid having an analgetic, antipyretic, antiphlogistic and bronchosecretolytic activity” (UNIONE CHIMICA MEDICAMENTI- DIFME-S.p.A., priority 1981, dated 1983).
